Values after ≈ are worked out from the molar mass of the structure shown. Active and inactive are the calls of the source. The calls are words filed in the database; no cut-off is given here.
Tests used:
Scedosporium boydii = assay: Antifungal activity against Allescheria boydii after 7 days by agar tube dilution method; type: functional; conditions: 168 h
Epidermophyton floccosum = assay: Antifungal activity against Epidermophyton floccosum after 7 days by agar tube dilution method; type: functional; conditions: 168 h
Aspergillus niger = assay: Antifungal activity against Aspergillus niger after 7 days by agar tube dilution method; type: functional; conditions: 168 h
Pleurotus ostreatus = assay: Antifungal activity against Pleurotus ostreatus after 7 days by agar tube dilution method; type: functional; conditions: 168 h
[1] = Antifungal activity against Dutarium rotatum after 7 days by agar tube dilution method; type: functional
Stachybotrys chartarum = assay: Antifungal activity against Stachybotrys atra after 7 days by agar tube dilution method; type: functional, organism-based
Nigrospora oryzae = assay: Antifungal activity against Nigrospora oryzae after 7 days by agar tube dilution method; type: functional, organism-based

| SMILES | MIC (Scedosporium boydii) [µg/mL] | MIC (Epidermophyton floccosum) [µg/mL] | MIC (Aspergillus niger) [µg/mL] | MIC (Pleurotus ostreatus) [µg/mL] | Activity [1] | Activity (Stachybotrys chartarum) | Activity (Nigrospora oryzae) |
| --- | --- | --- | --- | --- | --- | --- | --- |
| CCN1C[C@]2(C)CC[C@H](OC)[C@@]34[C@@H]5C[C@@H]6CC[C@](OC(C)=O)([C@@H](C[C@H]23)[C@@H]14)[C@H]5C(=O)O6 | 100 (≈ 239 µM) | 250 (≈ 599 µM) | 200 (≈ 479 µM) | 150 (≈ 359 µM) | – | – | – |
| C=C1C[C@@]23CC(=O)[C@@H]4[C@@]5(C)C[C@H](OC(C)=O)C[C@@]46[C@@H]2C[C@@H]1C(=O)[C@@H]3[C@H]6N(C)C5 [PANICUTINE] | 75 (≈ 196 µM) | 200 (≈ 522 µM) | 125 (≈ 326 µM) | 125 (≈ 326 µM) | Active | Active | Active |
| C=C1C[C@@]23C(=O)C(=O)[C@@H]4[C@@]5(C)C[C@H](OC(C)=O)C[C@@]46[C@@H]2C[C@@H]1C(=O)[C@@H]3[C@H]6N(C)C5 [VILMORRIANONE] | 150 (≈ 377 µM) | 225 (≈ 566 µM) | 100 (≈ 252 µM) | 175 (≈ 440 µM) | – | – | – |

Reference: ChEMBL document CHEMBL1146391, “Antifungal diterpenoid alkaloids from Delphinium denudatum” (1997)
